Assay results: ChEMBL document CHEMBL5321287, “Discovery, Synthesis, and Evaluation of Novel Dual Inhibitors of a Vascular Endothelial Growth Factor Receptor and Poly(ADP-Ribose) Polymerase for BRCA Wild-Type Breast Cancer Therapy” (J Med Chem, 2023)
Calls of active or inactive are those of the source. The rule behind the calls is not given here.

Tests used:
MDA-MB-231 [1] = assay: Antiproliferative activity against human MDA-MB-231 cells assessed as cell growth inhibition
MCF7 [2] = assay: Antiproliferative activity against human MCF7 cells assessed as cell growth inhibition
MDA-MB-436 = assay: Antiproliferative activity against human MDA-MB-436 cells assessed as cell growth inhibition
MCF7 [3] = assay: Induction of cell cycle arrest at S phase in human MCF7 cells at 4 uM by Annexin-V-FLUOS staining based flow cytometry; format: functional
MDA-MB-231 [4] = assay: Induction of cell cycle arrest at G2/M phase in human MDA-MB-231 cells at 4 uM by Annexin-V-FLUOS staining based flow cytometry; format: functional
MDA-MB-231 [5] = assay: Antiproliferation activity against human MDA-MB-231 cells assessed as decrease in Ki67 expression at 4 uM incubated for 48 hrs in presence of 1:1 of compound:Olaparib by immunofluorescence analysis; format: functional, cell-based
MDA-MB-231 [6] = assay: Induction of apoptosis in human MDA-MB-231 cells assessed as decrease in Bcl-2 level at 4 uM incubated for 2 days in presence of 1:1 of compound:Olaparib by immunoblot analysis; format: functional, cell-based; details: time 2.0 day
MDA-MB-231 [7] = assay: Antimigratory activity against human MDA-MB-231 cells at 4 uM incubated for 1 hr in presence of 1:1 of compound:Olaparib by wound healing assay; format: functional, cell-based
MDA-MB-231 [8] = assay: Antimigratory activity in human MDA-MB-231 cells assessed as upregulation of E-cadherin level at 4 uM by DAPI staining based immunofluorescence analysis; format: functional, cell-based
MDA-MB-231 [9] = assay: Antimigratory activity in human MDA-MB-231 cells assessed as upregulation of E-cadherin level at 4 uM in presence of 1:1 of compound:Olaparib by DAPI staining based immunofluorescence analysis; format: functional, cell-based
MDA-MB-231 [10] = assay: Antimigratory activity in human MDA-MB-231 cells assessed as upregulation of E-cadherin level at 4 uM incubated for 2 days by immunoblot analysis; format: functional, cell-based; details: time 2.0 day
MDA-MB-231 [11] = assay: Antimigratory activity in human MDA-MB-231 cells assessed as upregulation of E-cadherin level at 4 uM incubated for 2 days in presence of 1:1 of compound:Olaparib by immunoblot analysis; format: functional, cell-based; details: time 2.0 day
MDA-MB-231 [12] = assay: Antimigratory activity in human MDA-MB-231 cells assessed as downregulation of MMP-2 level at 4 uM incubated for 2 days by immunoblot analysis; format: functional, cell-based; details: time 2.0 day
MDA-MB-231 [13] = assay: Antimigratory activity in human MDA-MB-231 cells assessed as downregulation of MMP-2 level at 4 uM incubated for 2 days in presence of 1:1 of compound:Olaparib by immunoblot analysis; format: functional, cell-based; details: time 2.0 day
MCF7 [14] = assay: Antimigratory activity in human MCF7 cells assessed as downregulation of MMP-2 level at 4 uM incubated for 2 days in presence of 1:1 of compound:Olaparib by immunoblot analysis; format: functional, cell-based; details: time 2.0 day
MDA-MB-231 [15] = assay: Downregulation of Olaparib-induced PAR expression in human MDA-MB-231 cells at 4 uM incubated for 2 days by Western blot analysis; format: functional, cell-based; details: time 2.0 day
MDA-MB-231 [16] = assay: Induction of hypoxia in human MDA-MB-231 cells assessed as upregulation of HIF-1alpha level at 4 uM incubated for 2 days in presence 1:1 of Olaparib by Western blot analysis; format: functional, cell-based; details: time 2.0 day
MDA-MB-231 [17] = assay: Induction of DNA damage in human MDA-MB-231 cells assessed as increase in comet tail length at 4 uM in presence 1:1 of Olaparib by alkaline comet assay; format: functional, cell-based
MDA-MB-231 [18] = assay: Induction of HR DNA repair in human MDA-MB-231 cells assessed as decrease in RAD51 level at 4 uM incubated for 48 hrs by DAPI staining based immunofluorescence analysis; format: functional, cell-based
MCF7 [19] = assay: Induction of HR DNA repair in human MCF7 cells assessed as decrease in RAD51 level at 4 uM incubated for 48 hrs by DAPI staining based immunofluorescence analysis; format: functional, cell-based
MCF7 [20] = assay: Induction of HR DNA repair in human MCF7 cells assessed as decrease in RAD51 level at 4 uM incubated for 48 hrs in presence of 1:1 of compound:Olaparib by DAPI staining based immunofluorescence analysis; format: functional, cell-based
MCF7 [21] = assay: Antiinvasive activity against human MCF7 cells at 4 uM incubated for 12 hrs in presence of 1:1 of compound:Olaparib by transwell assay; format: functional, cell-based
MDA-MB-231 [22] = assay: Antimigratory activity in human MDA-MB-231 cells xenografted in BALB/c nude mouse assessed as downregulation of MMP2 level at 50 mg/kg, po for 14 days in presence of 1:1 of compound:Olaparib by H and E staining based IHC analysis; format: functional, organism-based; details: time 14.0 day
MDA-MB-231 [23] = assay: Antimigratory activity in human MDA-MB-231 cells xenografted in BALB/c nude mouse assessed as upregulation of E-cadherin level at 50 mg/kg, po for 14 days in presence of 1:1 of compound:Olaparib by H and E staining based IHC analysis; format: functional, organism-based; details: time 14.0 day
[24] = target: Vascular endothelial growth factor receptor 1 (Homo sapiens, UniProt P17948); assay: Inhibition of VEGFR1 phosphorylation at tyr1333 residue in human MDA-MB-231 cells xenografted in BALB/c nude mouse at 25 to 50 mg/kg, po for 14 days in presence of 1:1 of compound:Olaparib by Western blot analysis; format: organism-based; details: dose 25-50 mg/kg, time 14.0 day
Vascular endothelial growth factor receptor 1, sequence (P17948 whole entry): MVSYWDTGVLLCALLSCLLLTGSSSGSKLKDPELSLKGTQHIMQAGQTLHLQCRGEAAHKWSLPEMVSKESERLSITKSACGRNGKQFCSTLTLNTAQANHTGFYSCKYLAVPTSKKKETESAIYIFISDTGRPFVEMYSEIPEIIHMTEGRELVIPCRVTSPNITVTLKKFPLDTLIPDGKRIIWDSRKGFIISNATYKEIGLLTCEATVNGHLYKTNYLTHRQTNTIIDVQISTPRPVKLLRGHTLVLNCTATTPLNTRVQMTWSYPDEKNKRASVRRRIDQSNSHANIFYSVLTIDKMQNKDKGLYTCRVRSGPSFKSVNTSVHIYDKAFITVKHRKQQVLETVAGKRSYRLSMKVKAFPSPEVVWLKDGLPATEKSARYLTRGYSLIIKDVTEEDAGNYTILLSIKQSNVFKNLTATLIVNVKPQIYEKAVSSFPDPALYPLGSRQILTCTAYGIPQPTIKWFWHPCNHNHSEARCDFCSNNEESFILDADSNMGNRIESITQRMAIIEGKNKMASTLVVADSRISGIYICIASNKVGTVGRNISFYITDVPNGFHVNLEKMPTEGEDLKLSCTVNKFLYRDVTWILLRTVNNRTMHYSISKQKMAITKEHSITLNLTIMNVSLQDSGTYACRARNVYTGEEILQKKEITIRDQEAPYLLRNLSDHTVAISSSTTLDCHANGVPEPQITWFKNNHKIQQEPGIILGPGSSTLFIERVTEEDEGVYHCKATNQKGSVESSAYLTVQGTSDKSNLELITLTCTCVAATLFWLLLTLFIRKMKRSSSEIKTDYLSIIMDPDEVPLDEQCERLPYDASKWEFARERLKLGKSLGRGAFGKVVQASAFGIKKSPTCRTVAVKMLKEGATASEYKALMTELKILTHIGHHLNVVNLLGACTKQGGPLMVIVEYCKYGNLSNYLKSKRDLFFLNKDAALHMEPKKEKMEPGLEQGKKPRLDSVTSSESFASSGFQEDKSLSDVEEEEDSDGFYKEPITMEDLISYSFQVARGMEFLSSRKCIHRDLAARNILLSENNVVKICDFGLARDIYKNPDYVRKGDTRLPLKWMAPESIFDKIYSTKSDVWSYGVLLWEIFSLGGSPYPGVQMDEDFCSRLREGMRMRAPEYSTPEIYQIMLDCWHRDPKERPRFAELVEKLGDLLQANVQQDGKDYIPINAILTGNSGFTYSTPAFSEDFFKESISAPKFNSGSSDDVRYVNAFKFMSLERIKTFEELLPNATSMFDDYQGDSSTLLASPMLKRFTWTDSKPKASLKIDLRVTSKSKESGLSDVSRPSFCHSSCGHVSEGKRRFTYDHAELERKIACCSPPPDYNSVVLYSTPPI

MDA-MB-231 [25] = assay: Induction of HR DNA repair in human MDA-MB-231 cells xenografted in BALB/c nude mouse assessed as decrease in BRCA1 level at 50 mg/kg, po for 14 days in presence of 1:1 of compound:Pazopanib by H and E staining based IHC analysis; format: functional, organism-based; details: time 14.0 day
MDA-MB-231 [26] = assay: Induction of HR DNA repair in human MDA-MB-231 cells xenografted in BALB/c nude mouse assessed as decrease in FOXM1 level at 50 mg/kg, po for 14 days in presence of 1:1 of compound:Olaparib by H and E staining based IHC analysis; format: functional, organism-based; details: time 14.0 day
MDA-MB-231 [27] = assay: Antimetastatic activity against human MDA-MB-231 cells xenografted in lungs of BALB/c nude mouse assessed as decrease in lung metastatic nodules at 50 mg/kg administered once a day measured after 14 days in presence of 1:1 of compound:Olaparib; format: functional, organism-based; details: time 14.0 day
MDA-MB-231 [28] = assay: Antimigratory activity in human MDA-MB-231 cells xenografted in lungs of BALB/c nude mouse assessed as decrease in MMP2 level in lungs at 50 mg/kg administered once a day measured after 14 days in presence of 1:1 of compound:Olaparib by IHC analysis; format: functional, organism-based; details: time 14.0 day
MDA-MB-231 [29] = assay: Antimigratory activity in human MDA-MB-231 cells xenografted in lungs of BALB/c nude mouse assessed as increase in E-cadherin level in lungs at 50 mg/kg administered once a day measured after 14 days in presence of 1:1 of compound:Olaparib by IHC analysis; format: functional, organism-based; details: time 14.0 day
[30] = target: Vascular endothelial growth factor receptor 2 (Homo sapiens, UniProt P35968); details: MDA-MB-231, dose 25-50 mg/kg, route po, time 14.0 day
Vascular endothelial growth factor receptor 2, sequence (P35968 whole entry): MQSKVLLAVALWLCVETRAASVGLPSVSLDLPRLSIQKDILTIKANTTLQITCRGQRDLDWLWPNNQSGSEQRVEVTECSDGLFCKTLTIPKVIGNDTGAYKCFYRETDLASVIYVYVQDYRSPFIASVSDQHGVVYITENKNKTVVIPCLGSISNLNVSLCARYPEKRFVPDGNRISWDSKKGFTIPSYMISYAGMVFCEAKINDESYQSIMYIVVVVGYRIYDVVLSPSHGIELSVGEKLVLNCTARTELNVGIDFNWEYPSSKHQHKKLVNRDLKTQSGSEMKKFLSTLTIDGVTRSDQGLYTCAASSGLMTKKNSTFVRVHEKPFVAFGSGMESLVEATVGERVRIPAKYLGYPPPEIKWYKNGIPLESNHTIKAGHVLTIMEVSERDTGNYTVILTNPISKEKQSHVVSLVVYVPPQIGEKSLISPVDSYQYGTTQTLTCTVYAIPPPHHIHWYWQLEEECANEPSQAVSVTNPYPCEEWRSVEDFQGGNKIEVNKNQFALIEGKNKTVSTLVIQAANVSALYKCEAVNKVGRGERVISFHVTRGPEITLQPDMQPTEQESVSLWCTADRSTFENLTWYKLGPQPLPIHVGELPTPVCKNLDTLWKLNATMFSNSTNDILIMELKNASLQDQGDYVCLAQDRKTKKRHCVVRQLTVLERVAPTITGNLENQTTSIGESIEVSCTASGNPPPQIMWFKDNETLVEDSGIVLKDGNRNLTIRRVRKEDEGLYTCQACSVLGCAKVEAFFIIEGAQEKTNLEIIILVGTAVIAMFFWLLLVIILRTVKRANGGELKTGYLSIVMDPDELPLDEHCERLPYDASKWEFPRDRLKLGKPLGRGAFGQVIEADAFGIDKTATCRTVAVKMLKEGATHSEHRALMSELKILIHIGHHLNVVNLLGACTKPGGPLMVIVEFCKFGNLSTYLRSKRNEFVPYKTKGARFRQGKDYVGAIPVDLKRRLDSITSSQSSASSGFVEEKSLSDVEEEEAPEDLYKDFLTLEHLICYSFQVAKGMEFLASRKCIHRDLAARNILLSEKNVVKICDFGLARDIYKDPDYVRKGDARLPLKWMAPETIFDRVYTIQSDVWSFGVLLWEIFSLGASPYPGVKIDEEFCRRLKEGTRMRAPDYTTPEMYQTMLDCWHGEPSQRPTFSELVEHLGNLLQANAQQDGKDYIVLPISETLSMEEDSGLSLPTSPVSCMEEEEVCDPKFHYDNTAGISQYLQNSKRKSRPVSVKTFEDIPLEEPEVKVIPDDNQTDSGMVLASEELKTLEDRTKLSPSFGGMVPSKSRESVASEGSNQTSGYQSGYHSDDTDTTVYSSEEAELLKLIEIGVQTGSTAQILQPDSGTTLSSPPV

HCC1937 = assay: cells; details: Homo sapiens
MCF7 [31] = assay: cells; details: Homo sapiens
HUVEC = assay: cells; details: Homo sapiens, 48 h

IC50 (MDA-MB-231 [1]): > 10 µM | IC50 (MCF7 [2]): > 10 µM | IC50 (MDA-MB-436): > 10 µM | inhibition [24]: Active | inhibition [30]: Active | IC50 (HCC1937): > 10 µM | IC50 (MCF7 [31]): > 10 µM
Compound: Cc1ccc(Nc2nccc(N(C)c3ccc4c(C)n(C)nc4c3)n2)cc1S(N)(=O)=O [PAZOPANIB]
Activity (MCF7 [3]): Active | Activity (MDA-MB-231 [4]): Active | Activity (MDA-MB-231 [5]): Active | Activity (MDA-MB-231 [6]): Active | Activity (MDA-MB-231 [7]): Active | Activity (MDA-MB-231 [8]): Active | Activity (MDA-MB-231 [9]): Active | Activity (MDA-MB-231 [10]): Active | Activity (MDA-MB-231 [11]): Active | Activity (MDA-MB-231 [12]): Active | Activity (MDA-MB-231 [13]): Active | Activity (MCF7 [14]): Active | Activity (MDA-MB-231 [15]): inactive | Activity (MDA-MB-231 [16]): Active | Activity (MDA-MB-231 [17]): Active | Activity (MDA-MB-231 [18]): Active | Activity (MCF7 [19]): Active | Activity (MCF7 [20]): Active | Activity (MCF7 [21]): Active | Activity (MDA-MB-231 [22]): Active | Activity (MDA-MB-231 [23]): Active | Activity (MDA-MB-231 [25]): Active | Activity (MDA-MB-231 [26]): Active | Activity (MDA-MB-231 [27]): Active | Activity (MDA-MB-231 [28]): Active | Activity (MDA-MB-231 [29]): Active | IC50 (HUVEC): 4.6 µM
